Where two headings read alike, the source gives them in different places.
Assays:
[1] = test system: adhesion of Ramos cells to VCAM-1; experiment: Adhesion of Ramos cells to immobilized VCAM-1 (domains 1-3); assay type: cell-based; details: Homo sapiens
Text: In Vitro Assay: Adhesion of Ramos Cells to Immobilized VCAM-1 (Domains 1-3) Preparation of VCAM-1 (Extracellular Domains 1-3)
Complementary DNA (cDNA) encoding 7-domain form of VCAM-1 (GenBank accession #M60335) was obtained using Rapid-Screen™ cDNA library panels (OriGene Technologies, Inc) at Takara Gene Analysis Center (Shiga, Japan). The primers used were 5′-CCAAGGCAGAGTACGCAAAC-3′ (sense) and 5′-TGGCAGGTATTATTAAGGAG-3′ (antisense). PCR amplification of the 3-domain VCAM-1 cDNA was perform using Pfu DNA polymerase (Stratagene) with the following sets of primers: (U-VCAMd1-3) 5′-CCATATGGTACCTGATCAATTTAAAATCGAGACCACCCCAGAA-3′; (L-VCAMdl-3) 5-CCATATAGCAATCCTAGGTCCAGGGGAGATCTCAACAGTAAA-3′. PCR cycle was 94° C. for 45 sec, 55° C. for 45 sec, 72° C. for 2 min, repeating 15 cycles. After the purification of the PCR product, the fragment was digested with KpnI-AvrII. The digested fragment was ligated into pBluescript IISK(−) (Strategene), which was linearized by digesting with KpnI-XhoI. The ligation was followed by transformation to a Dam/Dcm methylase-free E. coli strain SCS110 (Strategene) to create the donor plasmid […]. To direct VCAM-1 molecule into the insect cell secretory pathway, the VCAM-1 coding sequence was fused to signal peptide sequence of honeybee melittin. The resulting melittin-VCAM fusion was placed in correct orientation to the baculovirus polyhedrin promoter. Baculovirus transfer vector containing first 3-domain form VCAM-1 (pH10) was constructed by ligation of 0.9 kb fragment from AvrII/Klenow/BclI digests of pH7 into SalI/Klenow/BamHI digests of pMelBacB (Invitrogen). Recombinant baculovirus was generated by using Bac-N-Blue™ Transfection kit (Invitrogen) according to the manufacture's instruction. The recombinant virus was amplified by infection to High-Five™ insect cells for 5-6 days, and virus titer was determined by plaque assay.
High-Five™ insect cells were pelleted in a 225 ml conical tube by centrifugation at 1000 rpm for 5 min. After discarding the supernatant, the pellet was resuspended in 1.5×10^9 pfu (MOI=5) of high-titer virus solution, followed by incubation for 1.5 hours at room temperature. The cells were pelleted again and washed once in fresh Express Five™ serum free medium. The cells were pelleted again and finally, resuspended in 200 ml of fresh Express Five TM medium, transferred to a 1,000 ml shaker flask, and incubated in a shaker at 27° C., 130 rpm, for 48 hours before the culture supernatant was collected. The purification of 3-domain form of VCAM-1 from the culture supernatant was performed by one-step anion exchange chromatography. Protein concentration was determined by using Coomassie protein assay reagent (Pierce) according to the manufacture's instruction.
Preparation of VCAM-1 Coated Microtiter Plates
Recombinant human VCAM-1 (extracellular domains 1-3) was dissolved at 1.0 μg/ml in PBS. Each well of the microtiter plates (Nalge Nunc International, Fluoronunc Cert, 437958) was coated with 100 μl of substrate or for background control with buffer alone for 15 hours at 4 C. After discarding the substrate solution, the wells were blocked using 150 μl per well of block solution (Kirkegaard Perry Laboratories, 50-61-01) for 90 minutes. The plate was washed with wash buffer containing 24 mM Tris-HCl (pH 7.4), 137 mM NaCl, […] and 2 mM MnCl2 just before addition of the assay.
In Vitro Assay using Ramos Cells
Preparation of Fluorescence Labeled Ramos Cells:
Ramos cells (American Type Culture Collection, Clone CRL-1596) were cultured in RPMI 1640 medium (Nikken Bio Medical Laboratory, CM1101) supplemented with 10% fetal bovine serum (Hyclone, A-1119-L), 100 U/ml penicilin (Gibco BRL, 15140-122) and 100 μg/ml streptomycin (Gibco BRL, 15140-122) in a humidified incubator at 37° C. with 5% CO2. […]

[2] = observed IC50 value ranges, Table 4 does not say whether Ramos-VCAM-1 or Jurkat-VCAM-1, read-out: IC50

SMILES | IC50 ([1]; Ramos) | melting point | IC50 [1, 2]
Cc1ccccc1NC(=O)Nc1ccc(CC(=O)NC(CC(C)C)C(=O)Nc2ccc(C(=O)O)cc2)cc1 (stereo not shown) [Example 37] | < 500 nM | 219 to 223 °C | –
Cc1ccccc1NC(=O)Nc1ccc(CC(=O)NC2CCCN(c3ccc(C(=O)O)cc3)C2)cc1 (stereo not shown) [Example 49, 4-[3-({[4-({[(2-methylphenyl)amino]carbonyl}amino)phenyl]acetyl}amino)-1-piperidinyl]benzoic acid] | < 500 nM | 236 to 238 °C | –
Cc1ccccc1NC(=O)Nc1ccc(CC(=O)NC2CCN(c3ccc(C(=O)O)cc3)C2)cc1 (stereo not shown) [Example 50, 4-[3-({[4-({[(2-methylphenyl)amino]carbonyl}amino)phenyl]acetyl}amino)-1-pyrrolidinyl]benzoic acid] | < 500 nM | 239 to 242 °C | –
Cc1ccccc1NC(=O)Nc1ccc(CC(=O)NCC(=O)N(CC(C)C)c2ccc(C(=O)O)cc2)cc1 [Example 51, 4-[isobutyl(N-{[4-({[(2-methylphenyl)amino]carbonyl}amino)phenyl]acetyl}glycyl)amino]benzoic acid] | > 10000 nM | 131 to 132 °C | –
COCCCN(CC(=O)N(CC(C)C)c1ccc(C(=O)O)cc1)C(=O)Cc1ccc(NC(=O)Nc2ccccc2C)cc1 [Example 52, 4-[isobutyl(N-(3-methoxypropyl)-V-{[4-({[(2-methylphenyl)amino]carbonyl}amino)phenyl]acetyl}glycyl)amino]benzoic acid] | > 10000 nM | 76 to 76.5 °C | –
COCCCN(CC(=O)N(C)c1ccc(C(=O)O)cc1)C(=O)Cc1ccc(NC(=O)Nc2ccccc2C)cc1 [Example 53, 4-[(N-(3-methoxypropyl)-N-{[4-({[(2-methylphenyl)amino]carbonyl}amino)phenyl]acetyl}glycyl)(methyl)amino]benzoic acid] | 500 to 2000 nM | 63 to 64 °C | –
Cc1ccccc1NC(=O)Nc1ccc(CC(=O)N[C@@H](CCCCN)C(=O)Nc2ccc(C(=O)O)cc2)cc1.O=C(O)C(F)(F)F [Example 53a] | – | 168 to 169 °C | < 500 nM
Cc1ccccc1NC(=O)Nc1ccc(CC(=O)N[C@H](CCCCN)C(=O)Nc2ccc(C(=O)O)cc2)cc1.O=C(O)C(F)(F)F [Example 54, 4-[(N^2-{[4-({[(2-methylphenyl)amino]carbonyl}amino)phenyl]acetyl}-D-lysyl)amino]benzoic acid trifluoroacetate] | – | 73 to 75 °C | < 500 nM
O=C(Cc1ccc2nc(Nc3ccccc3)oc2c1)NCC(=O)Nc1ccc(C(=O)O)cc1 [Example 74, 4-({N-[(2-anilino-1,3-benzoxazol-6-yl)acetyl]glycyl}amino)benzoic acid] | < 500 nM | > 280 °C | –
O=C(CN(CCc1ccccc1)C(=O)Cc1ccc2nc(Nc3ccccc3)oc2c1)Nc1ccc(C(=O)O)cc1 [Example 75, 4-{[N-[(2-anilino-1,3-benzoxazol-6-yl)acetyl]-N-(2-phenylethyl)glycyl]-amino}benzoic acid] | < 500 nM | 160 to 162 °C | –
COc1cc(CCN(CC(=O)Nc2ccc(C(=O)O)cc2)C(=O)Cc2ccc3nc(Nc4ccccc4)oc3c2)cc(OC)c1 [Example 77, 4-({N-[(2-anilino-1,3-benzoxazol-6-yl)acetyl]-N-[2-(3,5-dimethoxyphenyl)-ethyl]glycyl}amino)benzoic acid] | < 500 nM | – | –
O=C(CN(CCCN1CCCC1)C(=O)Cc1ccc2nc(Nc3ccccc3)oc2c1)Nc1ccc(C(=O)O)cc1 [Example 84] | 500 to 2000 nM | – | –
COc1cccc(CCN(CC(=O)Nc2ccc(C(=O)O)cc2)C(=O)Cc2ccc3nc(Nc4ccccc4)oc3c2)c1 [Example 87, 4-({N-[(2-anilino-1,3-benzoxazol-6-yl)acetyl]-N-[2-(3-methoxyphenyl)ethyl]-glycyl}amino)benzoic acid] | < 500 nM | – | –
O=C(Cc1ccc2nc(Nc3ccccc3)oc2c1)N[C@@H](Cc1ccccc1)C(=O)Nc1ccc(C(=O)O)cc1 [Example 89, 4-({N-[(2-anilino-1,3-benzoxazol-6-yl)acetyl]-L-phenylalanyl}amino)benzoic acid] | < 500 nM | – | –
Cc1ccccc1NC(=O)Nc1ccc(CC(=O)N[C@@H](Cc2ccc(Br)cc2)C(=O)Nc2ccc(C(=O)O)cc2)cc1 [Example 90, 4-[(4-bromo-N-{[4-({[(2-methylphenyl)amino]carbonyl}amino)phenyl]-acetyl}-L-phenylalanyl)amino]benzoic acid] | < 500 nM | – | –
O=C(Cc1ccc2nc(Nc3ccccc3)oc2c1)N[C@@H](Cc1ccc(Br)cc1)C(=O)Nc1ccc(C(=O)O)cc1 [Example 91] | 500 to 2000 nM | – | –
O=C(CN(Cc1ccccc1)C(=O)Cc1ccc2nc(Nc3ccccc3)oc2c1)Nc1ccc(C(=O)O)cc1 [Example 92] | 500 to 2000 nM | – | –

Continued, values first:

IC50 ([1]; Ramos) | melting point | IC50 [1, 2] | SMILES
< 500 nM | 210 to 218 °C | – | COCCCN(CC(=O)Nc1ccc(C(=O)O)cc1)C(=O)Cc1ccc(NC(=O)Nc2ccccc2C)cc1 [Example 38]
< 500 nM | 268 to 271 °C | – | Cc1ccccc1NC(=O)Nc1ccc(CC(=O)NCC(=O)Nc2ccc(C(=O)O)cc2)cc1 [Example 39, 4-[(N-{[4-({[(2-methylphenyl)amino]carbonyl}amino)phenyl]acetyl}glycyl)amino]benzoic acid]
< 500 nM | – | – | Cc1ccccc1NC(=O)Nc1ccc(CC(=O)N(CC(=O)Nc2ccc(C(=O)O)cc2)Cc2ccncc2)cc1 [Example 71, 4-{[N-{[4-({[(2-methylphenyl)amino]carbonyl}amino)phenyl]acetyl}-N-(4-yridinylmethyl)glycyl]amino}benzoic acid]
< 500 nM | – | – | Cc1ccccc1NC(=O)Nc1ccc(CC(=O)N(CCc2c[nH]cn2)CC(=O)Nc2ccc(C(=O)O)cc2)cc1 [Example 72, 4-[(N-[2-(1H-imidazol-4-yl)ethyl]-N-{[4-({[(2-methylphenyl)amino]carbonyl}amino)phenyl]acetyl}glycyl)amino]benzoic acid]
< 500 nM | – | – | Cc1ccccc1NC(=O)Nc1ccc(CC(=O)N(CCc2ccccn2)CC(=O)Nc2ccc(C(=O)O)cc2)cc1 [Example 73, 4-({N-{[4-({[(2-methylphenyl)amino]carbonyl}amino)phenyl]acetyl}-N-[2-(2-pyridinyl)ethyl]glycyl}amino)benzoic acid]
< 500 nM | – | – | COc1cccc(CCN(CC(=O)Nc2ccc(C(=O)O)cc2)C(=O)Cc2ccc(NC(=O)Nc3ccccc3C)cc2)c1 [Example 85, 4-[(N-[2-(3-methoxyphenyl)ethyl]-N-{[4-({[(2-methylphenyl)amino]-carbonyl}amino)phenyl]acetyl}glycyl)amino]benzoic acid]
< 500 nM | – | – | Cc1ccccc1NC(=O)Nc1ccc(CC(=O)N(CC(=O)Nc2ccc(C(=O)O)cc2)Cc2ccccc2)cc1 [Example 86, 4-[(N-benzyl-N-{[4-({[(2-methylphenyl)amino]carbonyl}amino)phenyl]-acetyl}glycyl)amino]benzoic acid]
< 500 nM | – | – | Cc1ccccc1NC(=O)Nc1ccc(CC(=O)N[C@@H](Cc2ccccc2)C(=O)Nc2ccc(C(=O)O)cc2)cc1 [Example 88, 4-[(N-{[4-({[(2-methylphenyl)amino]carbonyl}amino)phenyl]acetyl}-L-phenylalanyl)amino]benzoic acid]

From patent US20050054582A1, “Para-amino benzoic acids as integrin antagonists” (priority 2001, published 2005)
